Test results published in US20050220837A1, “Antimicrobial hyaluronic acid coatings for orthopedic implants” (priority 2003, published 2005).

Test system: hTERT cells
Assay: cytotoxicity of chlorhexidine on viability/adhesion of hTERT cells (Calcein AM / Ethidium homodimer)
Type: cell-based, human
Details: 24 h
Method: A separate experiment was carried out to measure the cytotoxicity of different chlorhexidine concentrations on the viability/adhesion of hTERT cells. hTERT cells were cultured as described above onto Thermanox discs in four well plates, but the DMEM with 10% FCS was inoculated with 0.1%, 1% or 10% chlorhexidine. Two control discs were also included containing just DMEM with 10% FCS, one disc was in the same plate as the chlorhexidine samples and the other in a separate four well plate. Plates were incubated at 37° C. for 24 h, before the media was removed and 1 ml DMEM (no FCS) containing 1 μl/ml Calcein AM (reacts with live cells) and 1 μl/ml Ethidium homodimer (reacts with dead cells) was added. The plates were incubated at 37° C. in the dark for a further 30 minutes, then the Thermanox discs were imaged using a Zeiss Epifluorescence microscope. Live well spread cells were seen on the sample not exposed to chlorhexidine, while dead cells were observed on the surface cultured in the same plate as samples exposed to chlorhexidine.

SMILES: [H]/N=C(\N/C(=N/[H])NCCCCCCNC(=N)NC(=N)Nc1ccc(Cl)cc1)Nc1ccc(Cl)cc1 [chlorhexidine]
- hTERT cells on Thermanox disc after exposure (0.1% chlorhexidine in DMEM with 10% FCS): No cells were seen
- hTERT cells on Thermanox disc after exposure (1% chlorhexidine in DMEM with 10% FCS): No cells were seen
